“And” between values parts separate entries of the source, which are not always exact repeats. Identical values can stand only once.
What was measured:
[1] = Phase 1 clinical study: plasma pharmacokinetics of prodrug and ibuprofen; type: in vivo, human; details: steady-state, 70 mg
[2] = system: Collagen II induced arthritis; assay: Collagen II induced arthritis; type: in vivo, Lewis rats; details: 10, 30 and 90 mg/kg daily, topical
[3] = system: osteoarthritis of the knee; assay: Second Phase 2 study: WOMAC stiffness subscale score; type: in vivo, human
From the text: For subjects with bilateral knee pain, both knees will be treated, but the most symptomatic knee (ie, the most painful knee as measured by the Western Ontario and McMaster University Osteoarthritis Index [WOMAC® 3.1] pain subscale score at Screening) will be designated as the target knee for efficacy analyses. For subjects with unilateral knee pain, only the symptomatic (target) knee will be treated.
The VAS version of the WOMAC will be used for the Primary and Secondary Efficacy Endpoints. Efficacy endpoints will be assessed at Screening and Baseline (Day 1) and at the Week 2, Week 4, Week 8, and Week 12/EOS visits.
4.9.2. Secondary Efficacy Endpoints: • 1. Change from Baseline in the WOMAC (VAS) pain subscale score for the target knee at 2, 8, and 12 weeks of treatment; • 2. Change from Baseline in the WOMAC (VAS) stiffness subscale scores for the target knee and WOMAC (VAS) functional ability subscale scores at 2, 4, 8, and 12 weeks of treatment; • 3. Change from Baseline in the overall WOMAC (VAS) score at 2, 4, 8, and 12 weeks of treatment; • 4. Subject's global assessment of disease status of the target knee at 2, 4, 8, and 12 weeks of treatment; • 5. Subject's global assessment of response to therapy of the target knee at 2, 4, 8, and 12 weeks of treatment; • 6. Amount of rescue medication (acetaminophen) consumed per day for target knee pain.
The Secondary Efficacy Endpoints, change from Baseline in the WOMAC subscale scores for pain, stiffness, and functional ability, and overall WOMAC score at 2, 4, 8, and 12 weeks of treatment, will be analyzed using the same methods as for the Primary Efficacy Endpoint.

[4] = pig, in vivo, topical or ocular, 9 mg/kg
[5] = 17.5 mg/knee BID, Week 12, first 130 subjects
[6] = Week 12, 4.375 mg/knee BID (n = 23), first 130 subjects
[7] = Week 12, 8.75 mg/knee BID (n = 24), first 130 subjects
[8] = Week 12, 17.5 mg/knee BID (n = 19), first 130 subjects
[9] = all subjects, 4.375 mg/knee BID, n = 49, Week 12
[10] = all subjects, 8.75 mg/knee BID, n = 54, Week 12
[11] = all subjects, 17.5 mg/knee BID, n = 52, Week 12

Compound: CCN(CC)CCOC(=O)C(C)c1ccc(CC(C)C)cc1 (stereo not drawn) [2-(diethylamino)ethyl 2-(4-isobutylphenyl)propionate]
- relative bioavailability of spray vs topical application (plasma ibuprofen) [1]: comparable at steady-state
- onset of the disease [2]: postponed the onset of the disease.
- WOMAC stiffness, difference from oral ibuprofen [3, 5]: −12.4 mm
- WOMAC stiffness, difference from placebo [3, 5]: −19.1 mm
- WOMAC Joint Stiffness Subscale Score, Day 1, Avg. ([3]; Avg. of all patients (blinded), Low Dose (2 spray/knee, 8.75 mg/knee) Cohort, Day 1): 64.2
- WOMAC Joint Stiffness Subscale Score, Week 2, Avg. ([3]; Avg. of all patients (blinded), Low Dose (2 spray/knee, 8.75 mg/knee) Cohort, Week 2): 52.5
- WOMAC Joint Stiffness Subscale Score, Week 4, Avg. ([3]; Avg. of all patients (blinded), Low Dose (2 spray/knee, 8.75 mg/knee) Cohort, Week 4): 45.7
- WOMAC Joint Stiffness Subscale Score, Week 8, Avg. ([3]; Avg. of all patients (blinded), Low Dose (2 spray/knee, 8.75 mg/knee) Cohort, Week 8): 42.3
- WOMAC Joint Stiffness Subscale Score, Week 12, Avg. ([3]; Avg. of all patients (blinded), Low Dose (2 spray/knee, 8.75 mg/knee) Cohort, Week 12): 41.8
- WOMAC Stiffness Subscale Scores, Baseline (LS Mean) ([3]; 4.375 mg/knee BID (n = 23), first 130 subjects): 50.2 mm
- WOMAC Stiffness Subscale Scores, Baseline (LS Mean) ([3]; 8.75 mg/knee BID (n = 24), first 130 subjects): 52.4 mm
- WOMAC Stiffness Subscale Scores, Baseline (LS Mean) ([3]; 17.5 mg/knee BID (n = 19), first 130 subjects): 57.6 mm
- WOMAC Stiffness Subscale Scores, % of improvement from Oral Ibuprofen [3, 6]: 0.6%
- WOMAC Stiffness Subscale Scores, % of improvement from Placebo [3, 6]: −9.7%
- WOMAC Stiffness Subscale Scores, % of improvement from baseline [3, 6]: −35.9%
- WOMAC Stiffness Subscale Scores, Changes from Baseline (LS Mean) [3, 6]: −18.0 mm
- WOMAC Stiffness Subscale Scores, Different from placebo (LS Mean) [3, 6]: −4.0 mm
- WOMAC Stiffness Subscale Scores, Week 12 (LS Mean) [3, 6]: 32.2 mm
- WOMAC Stiffness Subscale Scores, % of improvement from Oral Ibuprofen [3, 7]: −2.4%
- WOMAC Stiffness Subscale Scores, % of improvement from Placebo [3, 7]: −12.7%
- WOMAC Stiffness Subscale Scores, % of improvement from baseline [3, 7]: −38.9%
- WOMAC Stiffness Subscale Scores, Changes from Baseline (LS Mean) [3, 7]: −20.4 mm
- WOMAC Stiffness Subscale Scores, Different from oral ibuprofen (LS Mean) [3, 7]: 0.2 mm
- WOMAC Stiffness Subscale Scores, Different from placebo (LS Mean) [3, 7]: −6.4 mm
- WOMAC Stiffness Subscale Scores, Week 12 (LS Mean) [3, 7]: 32.0 mm
- WOMAC Stiffness Subscale Scores, % of improvement from Oral Ibuprofen [3, 8]: −21.0%
- WOMAC Stiffness Subscale Scores, % of improvement from Placebo [3, 8]: −31.3%
- WOMAC Stiffness Subscale Scores, % of improvement from baseline [3, 8]: −57.5%
- WOMAC Stiffness Subscale Scores, Changes from Baseline (LS Mean) [3, 8]: −33.1 mm
- WOMAC Stiffness Subscale Scores, Different from oral ibuprofen (LS Mean) [3, 8]: −12.4 mm
- WOMAC Stiffness Subscale Scores, Different from placebo (LS Mean) [3, 8]: −19.1 mm
- WOMAC Stiffness Subscale Scores, Week 12 (LS Mean) [3, 8]: 24.6 mm
- WOMAC Stiffness Subscale Scores, % of improvement from Oral Ibuprofen [3, 9]: 4.7%
- WOMAC Stiffness Subscale Scores, % of improvement from Placebo [3, 9]: −2.2%
- WOMAC Stiffness Subscale Scores, % of improvement from baseline [3, 9]: −34.6%
- WOMAC Stiffness Subscale Scores, Changes from Baseline (LS Mean) [3, 9]: −16.9 mm
- WOMAC Stiffness Subscale Scores, Week 12 (LS Mean) [3, 9]: 31.9 mm
- WOMAC Stiffness Subscale Scores, % of improvement from Oral Ibuprofen [3, 10]: −2.8%
- WOMAC Stiffness Subscale Scores, % of improvement from Placebo [3, 10]: −9.7%
- WOMAC Stiffness Subscale Scores, % of improvement from baseline [3, 10]: −42.1%
- WOMAC Stiffness Subscale Scores, Changes from Baseline (LS Mean) [3, 10]: −23.3 mm
- WOMAC Stiffness Subscale Scores, Different from oral ibuprofen (LS Mean) [3, 10]: −3.0 mm
- WOMAC Stiffness Subscale Scores, Different from placebo (LS Mean) [3, 10]: −6.7 mm
- WOMAC Stiffness Subscale Scores, Week 12 (LS Mean) [3, 10]: 32.0 mm
- WOMAC Stiffness Subscale Scores, % of improvement from Oral Ibuprofen [3, 11]: −8.0%
- WOMAC Stiffness Subscale Scores, % of improvement from Placebo [3, 11]: −14.9%
- WOMAC Stiffness Subscale Scores, % of improvement from baseline [3, 11]: −47.3%
- WOMAC Stiffness Subscale Scores, Changes from Baseline (LS Mean) [3, 11]: −25.2 mm
- WOMAC Stiffness Subscale Scores, Different from oral ibuprofen (LS Mean) [3, 11]: −4.9 mm
- WOMAC Stiffness Subscale Scores, Different from placebo (LS Mean) [3, 11]: −8.6 mm
- WOMAC Stiffness Subscale Scores, Week 12 (LS Mean) [3, 11]: 28.1 mm
- WOMAC Joint Stiffness Subscale Score, Week 4 ([3]; individual patient (blinded), Low Dose (2 spray/knee, 8.75 mg/knee) Cohort, Week 4): 59.5 and 62
- cartilage AUClast [4]: 23910 ng·h/mL
- muscle AUClast [4]: 35890 ng·h/mL

From patent US20240024273A1, “TOPICAL ADMINISTRATION OF 2-(DIETHYLAMINO)ETHYL 2-(4-ISOBUTYLPHENYL)PROPRIONATE FOR TREATMENT OF DISEASES” (TECHFIELDS PHARMA CO., LTD., priority 2020, published 2024)
